Reference: patent publication US4341768A, “Antibiotic compounds” (priority 1981, dated 1982)
Bridge positions count the residues as written; N and C are the ends. Square brackets hold non-standard residues; d marks the D form. Peptide text beside a SMILES is read from it. * marks the point of attachment. X1 = CCC(C)CCCCC(O)CC(=O)*; dDab = NCC[C@@H](N)C(=O)O; Dab = NCC[C@H](N)C(=O)O

Experiments:
Acute toxicity in mice = format: in vivo; conditions: for LD50: mouse, in vivo
Protocol: The acute toxicities of Bu-2470 A and B1 were determined in mice by intravenous(iv) and subcutaneous (sc) routes. Colistin was tested comparatively as a reference compound.

| SMILES | Solubility in aqueous lower alcohols, aqueous dioxane, dimethylsulfoxide and dimethylformamide (Solubility; aqueous lower alcohols, aqueous dioxane, dimethylsulfoxide, dimethylformamide) | Solubility in lower alcohols (Solubility; lower alcohols) | Solubility in other organic solvents (Solubility; other organic solvents) | Solubility in water (Solubility; water over a wide pH range) | Acute toxicity relative to colistin (Acute toxicity in mice; iv route) | LD50 (Acute toxicity in mice; intravenous) | LD50 (Acute toxicity in mice; sc, subcutaneous) | Acute toxicity relative to colistin (Acute toxicity in mice; sc route) |
| --- | --- | --- | --- | --- | --- | --- | --- | --- |
| CC(C)C[C@@H]1NC(=O)[C@H](CCN)NC(=O)[C@H](CCN)NC(=O)[C@H](CC(C)C)NC(=O)[C@@H](Cc2ccccc2)NC(=O)[C@H](CCN)NC(=O)[C@@H](NC(=O)[C@H](N)CCN)CCNC1=O [Bu-2470A] (H-[dDab][Dab][Dab][dF]L[Dab][Dab]L; lactam 2-C) | readily soluble | slightly soluble | practically insoluble | readily soluble | less toxic than colistin | 35 mg/kg | 56 mg/kg | more toxic |
| CCC(C)CCCCC(O)CC(=O)N[C@H](CCN)C(=O)N[C@H]1CCNC(=O)[C@H](CC(C)C)NC(=O)[C@H](CCN)NC(=O)[C@H](CCN)NC(=O)[C@H](CC(C)C)NC(=O)[C@@H](Cc2ccccc2)NC(=O)[C@H](CCN)NC1=O (stereo partly drawn) [Bu-2470B1] (X1-[dDab][Dab][Dab][dF]L[Dab][Dab]L; lactam 2-C) | – | – | – | – | less toxic than colistin | 35 mg/kg | 280 mg/kg | less toxic than colistin |
